# According to publication PMC12951562, “SH2scan: Mapping SH2 Domain-Ligand Binding Selectivity for Inhibitors and Degraders” (Journal of Medicinal Chemistry, 2026):
# Read-outs that look alike come from different tables or passages of the source. Non-standard residues stand in square brackets, D forms with d. Residues, ends and D or L forms follow the SMILES beside them. *: point of attachment. pY = N[C@@H](Cc1ccc(OP(=O)(O)O)cc1)C(=O)O; Caffeoyl = O=C(/C=C/c1ccc(O)c(O)c1)*
# Columns and labels:
# Assay in all cases: biochemical
# Format in all cases: binding
# CBLB = biological target: T1, CBLB (Homo sapiens, UniProt Q13191); settings: for percent of DMSO vehicle control: primary screen, 10 μM
# T1 construct: the DNA-tagged SH2 domain concentrations used in this study were <0.1 nM; made in house; host or cells: HEK293 (transient transfection; unpurified extract)
# T1 sequence (Q13191 241-343 limits assumed): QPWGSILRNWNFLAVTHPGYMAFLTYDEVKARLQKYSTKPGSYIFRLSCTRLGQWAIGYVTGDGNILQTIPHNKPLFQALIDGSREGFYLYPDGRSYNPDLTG
# CRK = biological target: T2, CRK (Homo sapiens, UniProt P46108); settings: for percent of DMSO vehicle control at 10 µM / remaining activity at 10 µM: read-out: percent of DMSO vehicle control; for remaining activity at 10 µM: primary screen
# T2 construct: the DNA-tagged SH2 domain concentrations used in this study were <0.1 nM; made in house; host or cells: HEK293 (transient transfection; unpurified extract)
# T2 sequence (P46108 13-118 limits assumed): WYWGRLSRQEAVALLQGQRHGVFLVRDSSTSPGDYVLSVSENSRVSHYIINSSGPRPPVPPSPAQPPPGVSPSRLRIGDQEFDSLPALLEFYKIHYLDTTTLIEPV
# GRB10 = biological target: T3, GRB10 (Homo sapiens, UniProt Q13322); settings: for percent of DMSO vehicle control at 10 µM / remaining activity at 10 µM: read-out: percent of DMSO vehicle control; for remaining activity at 10 µM: primary screen
# T3 construct: the DNA-tagged SH2 domain concentrations used in this study were <0.1 nM; made in house; host or cells: HEK293 (transient transfection; unpurified extract)
# T3 sequence (Q13322 493-574 limits assumed): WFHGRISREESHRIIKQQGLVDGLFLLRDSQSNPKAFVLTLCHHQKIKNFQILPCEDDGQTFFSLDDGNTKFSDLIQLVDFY
# MATK = biological target: T4, MATK (Homo sapiens, UniProt P42679); settings: for percent of DMSO vehicle control at 10 µM / remaining activity at 10 µM: read-out: percent of DMSO vehicle control; for remaining activity at 10 µM: primary screen
# T4 construct: the DNA-tagged SH2 domain concentrations used in this study were <0.1 nM; made in house; host or cells: HEK293 (transient transfection, unpurified extract)
# T4 sequence (P42679 122-211 limits assumed): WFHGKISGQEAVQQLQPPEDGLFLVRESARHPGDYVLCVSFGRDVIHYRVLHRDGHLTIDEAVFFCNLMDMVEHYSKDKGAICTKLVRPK
# MIST = biological target: T5, MIST (Homo sapiens, UniProt Q7Z7G1); settings: read-out: percent of DMSO vehicle control; for remaining activity at 10 µM: primary screen
# T5 construct: the DNA-tagged SH2 domain concentrations used in this study were <0.1 nM; made in house; host or cells: HEK293 (transient transfection, unpurified extract)
# T5 sequence (Q7Z7G1 309-419 limits assumed): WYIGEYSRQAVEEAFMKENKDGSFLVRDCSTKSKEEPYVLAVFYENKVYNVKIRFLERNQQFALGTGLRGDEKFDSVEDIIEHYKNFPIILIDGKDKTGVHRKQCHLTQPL
# PIK3R2(SH2dom.N-term.) = biological target: T6, PIK3R2(SH2dom.N-term.) (Homo sapiens, UniProt O00459); settings: for remaining activity at 10 µM: read-out: percent of DMSO vehicle control
# T6 construct: SH2dom.N-term. denotes SH2 domain closest to N-terminus of protein; made in house; host or cells: HEK293 (transient transfection, unpurified extract)
# T6 sequence (O00459 330-425 limits assumed): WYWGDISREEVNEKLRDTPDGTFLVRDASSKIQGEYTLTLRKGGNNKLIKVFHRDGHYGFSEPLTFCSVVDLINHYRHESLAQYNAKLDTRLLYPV
# PIK3R3(SH2dom.C-term.) = biological target: T7, PIK3R3(SH2dom.C-term.) (Homo sapiens, UniProt Q92569); settings: for remaining activity at 10 µM: read-out: percent of DMSO vehicle control
# T7 construct: SH2dom.C-term. denotes SH2 domain closest to C-terminus of protein; made in house; host or cells: HEK293 (transient transfection, unpurified extract)
# PLCG2(SH2dom.C-term.) = biological target: T8, PLCG2(SH2dom.C-term.) (Homo sapiens, UniProt P16885); settings: for remaining activity at 10 µM: read-out: percent of DMSO vehicle control
# T8 construct: SH2dom.C-term. denotes SH2 domain closest to C-terminus of protein; made in house; host or cells: HEK293 (transient transfection, unpurified extract)
# T8 sequence (P16885 646-735 limits assumed): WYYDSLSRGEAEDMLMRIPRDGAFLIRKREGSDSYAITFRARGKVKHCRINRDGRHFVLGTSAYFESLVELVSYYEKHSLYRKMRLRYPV
# SHC3 = biological target: T9, SHC3 (Homo sapiens, UniProt Q92529); settings: for remaining activity at 10 µM: read-out: percent of DMSO vehicle control
# T9 construct: made in house; host or cells: HEK293 (transient transfection), unpurified extract
# T9 sequence (Q92529 1-594): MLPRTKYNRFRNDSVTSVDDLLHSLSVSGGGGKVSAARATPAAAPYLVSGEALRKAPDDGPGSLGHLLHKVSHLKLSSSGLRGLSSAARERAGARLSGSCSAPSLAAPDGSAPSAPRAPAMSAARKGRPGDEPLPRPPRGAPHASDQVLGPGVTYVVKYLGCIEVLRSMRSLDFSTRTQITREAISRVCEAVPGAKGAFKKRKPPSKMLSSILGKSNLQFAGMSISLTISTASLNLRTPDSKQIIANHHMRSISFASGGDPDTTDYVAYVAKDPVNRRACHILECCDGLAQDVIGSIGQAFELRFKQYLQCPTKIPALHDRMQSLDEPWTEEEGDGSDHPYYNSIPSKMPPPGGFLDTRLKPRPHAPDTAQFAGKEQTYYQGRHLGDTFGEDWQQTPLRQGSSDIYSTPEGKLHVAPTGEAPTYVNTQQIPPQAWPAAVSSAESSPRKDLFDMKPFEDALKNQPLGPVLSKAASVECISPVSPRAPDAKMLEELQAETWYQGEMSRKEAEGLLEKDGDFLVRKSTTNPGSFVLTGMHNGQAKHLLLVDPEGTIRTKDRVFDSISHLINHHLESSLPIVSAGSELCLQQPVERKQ
# SHF = biological target: T10, SHF (Homo sapiens, UniProt Q7M4L6); settings: for remaining activity at 10 µM: read-out: percent of DMSO vehicle control
# T10 construct: made in house; host or cells: HEK293 (transient transfection), unpurified extract
# T10 sequence (Q7M4L6 1-423): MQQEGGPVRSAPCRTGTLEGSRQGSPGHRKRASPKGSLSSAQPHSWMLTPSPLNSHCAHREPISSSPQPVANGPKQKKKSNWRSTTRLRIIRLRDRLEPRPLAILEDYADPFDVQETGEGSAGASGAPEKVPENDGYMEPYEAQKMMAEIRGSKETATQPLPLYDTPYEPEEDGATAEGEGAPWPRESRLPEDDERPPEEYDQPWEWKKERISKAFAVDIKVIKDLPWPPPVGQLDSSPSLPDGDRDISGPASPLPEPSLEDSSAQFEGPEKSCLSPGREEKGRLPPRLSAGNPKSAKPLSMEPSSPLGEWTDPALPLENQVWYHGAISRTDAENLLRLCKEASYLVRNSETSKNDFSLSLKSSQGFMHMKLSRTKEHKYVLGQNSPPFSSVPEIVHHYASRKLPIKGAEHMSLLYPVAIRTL
# SOCS2 = biological target: T11, SOCS2 (Homo sapiens, UniProt O14508); settings: for remaining activity at 10 µM: read-out: percent of DMSO vehicle control
# T11 construct: made in house; host or cells: HEK293 (transient transfection), unpurified extract
# T11 sequence (O14508 1-198): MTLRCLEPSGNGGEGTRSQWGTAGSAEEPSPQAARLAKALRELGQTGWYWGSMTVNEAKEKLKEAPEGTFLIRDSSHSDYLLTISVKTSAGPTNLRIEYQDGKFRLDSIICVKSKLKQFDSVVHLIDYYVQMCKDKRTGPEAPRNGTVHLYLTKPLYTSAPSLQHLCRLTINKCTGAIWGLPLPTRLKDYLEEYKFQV
Structure (SMILES),percent of DMSO vehicle control (CBLB) [%],percent of DMSO vehicle control at 10 µM (CRK) [%],percent of DMSO vehicle control at 10 µM (GRB10) [%],percent of DMSO vehicle control at 10 µM (MATK) [%],percent of DMSO vehicle control at 10 µM (MIST) [%],remaining activity at 10 µM (PIK3R2(SH2dom.N-term.)) [%],remaining activity at 10 µM (PIK3R3(SH2dom.C-term.)) [%],remaining activity at 10 µM (PLCG2(SH2dom.C-term.)) [%],remaining activity at 10 µM (SHC3) [%],remaining activity at 10 µM (SHF) [%],remaining activity at 10 µM (CRK) [%],remaining activity at 10 µM (GRB10) [%],remaining activity at 10 µM (MATK) [%],remaining activity at 10 µM (MIST) [%],"remaining activity at 10 µM (PIK3R2(SH2dom.N-term.); primary screen, 10 μM) [%]","remaining activity at 10 µM (PIK3R3(SH2dom.C-term.); primary screen, 10 μM) [%]","remaining activity at 10 µM (PLCG2(SH2dom.C-term.); primary screen, 10 μM) [%]","remaining activity at 10 µM (SHC3; primary screen, 10 μM) [%]","remaining activity at 10 µM (SHF; primary screen, 10 μM) [%]","remaining activity at 10 µM (SOCS2; primary screen, 10 μM) [%]",also measured
CC[C@H](C)[C@H](NC(=O)[C@H](CCC(=O)O)NC(=O)[C@H](CCC(=O)O)NC(=O)[C@H](Cc1ccc(OP(=O)(O)O)cc1)NC(=O)/C=C/c1ccc(O)c(O)c1)C(=O)N[C@@H](CCC(=O)O)C(=O)O [Caffeic acid-pYEEIE] (Caffeoyl-[pY]EEIE-OH),32.7±22.6,3.1 ± 2.8,0.7 ± 0.9,83.8 ± 3.5,72.9 ± 1.4,0,0.8 ± 0.1,1.1 ± 0.1,0,50.6 ± 4.3,–,–,–,–,–,–,–,–,–,–,Kd (CBLB): 5700 ± 1400 nM; Kd (CRK): 2300 ± 670 nM; Kd (GRB10): 480 ± 79 nM; Kd (PIK3R2(SH2dom.N-term.)): 180 ± 52 nM; Kd (PIK3R3(SH2dom.C-term.)): 230 ± 180 nM; Kd (PLCG2(SH2dom.C-term.)): 660 ± 700 nM; Kd (SHC3): 130 ± 120 nM; Kd (SHF): 27200 ± 8880 nM; Kd (SOCS2): 1300 ± 880 nM; remaining activity at 10 µM (SOCS2): 2.6 ± 0.1%
NC(=O)CC[C@H](NC(=O)[C@@H]1CC[C@@H]2CCN(C(=O)CCCCCC#Cc3cccc4c3CN(C3CCC(=O)NC3=O)C4=O)C[C@H](NC(=O)c3cc4cc(C(F)(F)P(=O)(O)O)ccc4[nH]3)C(=O)N21)C(=O)NC(c1ccccc1)c1ccccc1 (stereo partly shown) [SD-36],60.9±5.8,77 ± 13.9,111 ± 9.2,159 ± 5.1,104 ± 8.6,132,57.8 ± 6.8,86.3 ± 12.4,74.5 ± 0.8,100 ± 5.2,–,–,–,–,–,–,–,–,–,–,remaining activity at 10 µM (SOCS2): 98.5 ± 5.4%
CC(C)(C)[C@H](NC(=O)/C=C/c1ccc(OP(=O)(O)O)cc1)C(=O)N1CCC[C@H]1C(=O)N(c1ccccc1)c1ccc(I)cc1 [STAT6-IN-3],69.0±7.6,–,–,–,–,–,–,–,–,–,80.4 ± 9.5,58.8 ± 17.6,70.3 ± 45.8,102 ± 8.1,88.4 ± 18.2,26.9 ± 10.2,75.3 ± 10,50.6 ± 6.4,89.5 ± 4.6,7.9 ± 50.6,"Kd (PIK3R3(SH2dom.C-term.); dose-response, read-out: KD): 1020 ± 260 nM; Kd (SOCS2; dose-response, read-out: KD): 1010 ± 13 nM"
C/C(=C\C(=O)N[C@H](C(=O)N1CCC[C@H]1C(=O)N(c1ccccc1)c1ccc(I)cc1)C(C)(C)C)c1ccc(OP(=O)(O)O)cc1 [STAT6-IN-1],36.0±0.8,–,–,–,–,–,–,–,–,–,34.5 ± 1.8,14.6 ± 11,6.5 ± 1.8,88.7 ± 5.9,48.2 ± 5.7,1 ± 0.1,7.5 ± 0.6,35.3 ± 4.8,43.6 ± 7.2,0,"Kd (CRK; dose-response, read-out: KD): 2004 ± 5.9 nM; KD (GRB10; dose-response): No Hit; Kd (MATK; dose-response, read-out: KD): 3000 ± 490 nM; Kd (PIK3R3(SH2dom.C-term.); dose-response, read-out: KD): 780 ± 42 nM; Kd (PLCG2(SH2dom.C-term.); dose-response, read-out: KD): 3800 ± 500 nM; Kd (SHC3; dose-response, read-out: KD): 3600 ± 570 nM; Kd (SOCS2; dose-response, read-out: KD): 1500 ± 870 nM"
O=C(COc1ccc2cc(C(=O)Nc3ccccc3)ccc2c1)NCc1ccc(OP(=O)(O)O)c(OP(=O)(O)O)c1 [Stafib-1],78.9±15.9,–,–,–,–,–,–,–,–,–,90.2 ± 5.9,78.1 ± 12.9,59.9 ± 60.2,96.8 ± 9.3,97.2 ± 21.5,86.5,80.4 ± 8.2,87 ± 14.4,79.7 ± 9.4,47.9 ± 29,–
